Assay results: patent US20070231296A1, “Method of Combating Fruit Flies” (priority 2004, published 2007)

Legend:
[1] = system: Bactrocera tryoni; assay: Large field cage trial with a paper mâché block containing fipronil plus Cue-lure; assay type: in vivo; conditions: field cage 4×4×2.5 m, single paper mâché block with 20 milligrams of fipronil plus Cue-lure per cage
Source text: In a large field cage (4×4×2.5 m) trial, a single block of paper mâché containing 20 milligrams of fipronil plus Cue-lure was used per cage.
After 2 days of exposure, over 90% mortality of male and female Bactrocera tryoni was achieved, after 3 days even over 95% mortality of males and females.
Dead females were collected from the floor of the cage and dissected.

[2] = system: fruit flies; assay: Contact of male fruit flies with AMULET parapheromone stations and transfer to females; assay type: in vivo; conditions: AMULET station, 20 mg fipronil per station; depending on length of contact
Experimental: AMULET™ parapheromone stations use fipronil at a very low concentration (20 mg per station) that has no repulsion to male flies landing on the device allowing them to freely imbibe from its surface and walk over it for long periods. Female fruit flies of the same species are not attracted by the pheromone and do no show any interest in the stations.
Through this contact they contaminate the integument of the female that subsequently dies the following day.

For `N#Cc1nn(-c2c(Cl)cc(C(F)(F)F)cc2Cl)c(N)c1[S+]([O-])C(F)(F)F` (stereo not drawn) [fipronil], the “mortality of male and female Bactrocera tryoni” value ([1]; after 2 days of exposure) was “over 90%”, the “mortality of males and females” value ([1]; after 3 days) was “over 95%” and the “time after contact until male fruit flies die” value [2] was 3 to 48 h.
